According to ChEMBL document CHEMBL4507295 (2021):

Columns and labels:
[1] = tested on: Tyrosine-protein kinase ABL1 (Homo sapiens), P00519 [F317L]; details: Compound concentration 1000.0 nM
[2] = biological target: Mitogen-activated protein kinase kinase kinase 5 (Homo sapiens) (UniProt Q99683); details: Compound concentration 1000.0 nM
[3] = tested on: Serine/threonine-protein kinase B-raf (Homo sapiens), P15056 [V600E]; details: Compound concentration 1000.0 nM
[4] = biological target: Protein-tyrosine kinase 6 (Homo sapiens) (UniProt Q13882); details: Compound concentration 1000.0 nM
[5] = biological target: Cyclin-dependent kinase 13 (Homo sapiens) (UniProt Q14004); details: Compound concentration 1000.0 nM
[6] = biological target: Dual specificity protein kinase CLK1 (Homo sapiens) (UniProt P49759); details: Compound concentration 1000.0 nM
[7] = biological target: Casein kinase I isoform alpha (Homo sapiens) (UniProt P48729); details: Compound concentration 1000.0 nM
[8] = biological target: Casein kinase I isoform epsilon (Homo sapiens) (UniProt P49674); details: Compound concentration 1000.0 nM
[9] = biological target: Mitogen-activated protein kinase kinase kinase 12 (Homo sapiens) (UniProt Q12852); details: Compound concentration 1000.0 nM
[10] = tested on: Epidermal growth factor receptor (Homo sapiens), P00533 [UNDEFINED MUTATION]; details: Compound concentration 1000.0 nM
[11] = tested on: Epidermal growth factor receptor (Homo sapiens), P00533 [L858R]; details: Compound concentration 1000.0 nM
[12] = biological target: Mitogen-activated protein kinase 1 (Homo sapiens) (UniProt P28482); details: Compound concentration 1000.0 nM
[13] = biological target: Fibroblast growth factor receptor 2 (Homo sapiens) (UniProt P21802); details: Compound concentration 1000.0 nM
[14] = tested on: Fibroblast growth factor receptor 3 (Homo sapiens), P22607 [G697C]; details: Compound concentration 1000.0 nM
[15] = tested on: Receptor-type tyrosine-protein kinase FLT3 (Homo sapiens), P36888 [N841I]; details: Compound concentration 1000.0 nM
[16] = biological target: Rhodopsin kinase GRK7 (Homo sapiens) (UniProt Q8WTQ7); details: Compound concentration 1000.0 nM
[17] = tested on: Mast/stem cell growth factor receptor Kit (Homo sapiens), P10721 [L576P]; details: Compound concentration 1000.0 nM
[18] = tested on: Leucine-rich repeat serine/threonine-protein kinase 2 (Homo sapiens), Q5S007 [G2019S]; details: Compound concentration 1000.0 nM
Leucine-rich repeat serine/threonine-protein kinase 2 (Homo sapiens), Q5S007 [G2019S], sequence (Q5S007 whole entry G2019S): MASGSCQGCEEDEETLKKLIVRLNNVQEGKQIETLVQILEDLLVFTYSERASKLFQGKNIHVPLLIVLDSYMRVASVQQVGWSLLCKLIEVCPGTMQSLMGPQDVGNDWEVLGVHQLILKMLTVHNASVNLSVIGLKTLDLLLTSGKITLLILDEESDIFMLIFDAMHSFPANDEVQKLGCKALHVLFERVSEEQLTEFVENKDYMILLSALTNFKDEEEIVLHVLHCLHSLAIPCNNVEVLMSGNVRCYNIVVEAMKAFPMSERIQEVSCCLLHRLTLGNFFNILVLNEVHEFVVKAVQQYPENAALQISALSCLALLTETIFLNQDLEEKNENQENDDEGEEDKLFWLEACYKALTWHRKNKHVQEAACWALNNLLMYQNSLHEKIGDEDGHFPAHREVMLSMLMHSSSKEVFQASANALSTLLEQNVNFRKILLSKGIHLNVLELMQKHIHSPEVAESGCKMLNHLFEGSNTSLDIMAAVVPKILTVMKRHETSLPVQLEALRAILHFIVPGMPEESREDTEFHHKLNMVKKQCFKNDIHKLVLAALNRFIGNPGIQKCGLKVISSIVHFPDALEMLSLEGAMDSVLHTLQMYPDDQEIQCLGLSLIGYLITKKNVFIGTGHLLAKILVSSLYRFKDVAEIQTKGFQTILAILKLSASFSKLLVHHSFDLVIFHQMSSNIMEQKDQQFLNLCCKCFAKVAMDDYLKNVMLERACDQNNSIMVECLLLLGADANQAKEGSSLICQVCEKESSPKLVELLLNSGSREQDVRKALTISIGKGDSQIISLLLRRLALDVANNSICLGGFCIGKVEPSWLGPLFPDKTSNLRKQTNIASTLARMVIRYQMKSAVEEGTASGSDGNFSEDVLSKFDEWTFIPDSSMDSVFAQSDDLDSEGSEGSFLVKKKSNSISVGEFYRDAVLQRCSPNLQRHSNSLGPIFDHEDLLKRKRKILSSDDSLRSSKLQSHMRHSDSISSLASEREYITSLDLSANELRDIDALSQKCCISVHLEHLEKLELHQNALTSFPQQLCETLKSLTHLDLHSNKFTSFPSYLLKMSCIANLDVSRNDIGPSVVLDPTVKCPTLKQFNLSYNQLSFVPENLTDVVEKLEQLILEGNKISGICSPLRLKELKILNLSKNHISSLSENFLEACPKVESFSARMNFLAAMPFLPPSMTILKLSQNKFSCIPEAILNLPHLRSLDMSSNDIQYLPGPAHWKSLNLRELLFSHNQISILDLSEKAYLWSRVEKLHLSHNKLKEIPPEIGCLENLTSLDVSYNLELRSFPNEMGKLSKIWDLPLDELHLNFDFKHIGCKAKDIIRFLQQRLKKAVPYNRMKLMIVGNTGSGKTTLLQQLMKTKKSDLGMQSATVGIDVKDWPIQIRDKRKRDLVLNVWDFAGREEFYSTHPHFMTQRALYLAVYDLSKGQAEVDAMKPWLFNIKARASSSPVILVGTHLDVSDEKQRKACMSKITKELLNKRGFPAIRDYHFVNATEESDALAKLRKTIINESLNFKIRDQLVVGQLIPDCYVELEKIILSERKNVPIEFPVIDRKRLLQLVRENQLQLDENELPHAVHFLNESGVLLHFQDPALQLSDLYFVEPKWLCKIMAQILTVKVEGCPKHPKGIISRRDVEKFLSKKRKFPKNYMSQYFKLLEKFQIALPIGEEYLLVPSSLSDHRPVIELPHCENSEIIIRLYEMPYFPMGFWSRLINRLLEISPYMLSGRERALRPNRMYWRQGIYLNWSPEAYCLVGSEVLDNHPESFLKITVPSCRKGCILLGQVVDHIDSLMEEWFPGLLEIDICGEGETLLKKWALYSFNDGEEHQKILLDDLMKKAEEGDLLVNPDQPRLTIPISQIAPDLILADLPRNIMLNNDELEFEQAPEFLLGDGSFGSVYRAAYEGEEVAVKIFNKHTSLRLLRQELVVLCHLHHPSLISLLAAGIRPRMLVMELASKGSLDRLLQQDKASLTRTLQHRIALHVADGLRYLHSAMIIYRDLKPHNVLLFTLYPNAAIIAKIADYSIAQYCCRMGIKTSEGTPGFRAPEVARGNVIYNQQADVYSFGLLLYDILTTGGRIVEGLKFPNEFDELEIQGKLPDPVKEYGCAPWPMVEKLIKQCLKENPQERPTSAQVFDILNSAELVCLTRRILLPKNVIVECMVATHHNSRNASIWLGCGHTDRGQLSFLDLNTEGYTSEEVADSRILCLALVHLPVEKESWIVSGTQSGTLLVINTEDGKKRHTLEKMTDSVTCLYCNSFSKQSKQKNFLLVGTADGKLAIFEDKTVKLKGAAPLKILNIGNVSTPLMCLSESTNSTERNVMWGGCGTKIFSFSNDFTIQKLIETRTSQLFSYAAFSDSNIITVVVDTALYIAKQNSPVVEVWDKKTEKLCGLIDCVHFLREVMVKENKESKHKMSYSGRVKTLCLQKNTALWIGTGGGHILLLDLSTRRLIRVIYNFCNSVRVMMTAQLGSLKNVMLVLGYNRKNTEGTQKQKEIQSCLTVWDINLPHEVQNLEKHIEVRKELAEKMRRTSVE

[19] = biological target: Mitogen-activated protein kinase kinase kinase 4 (Homo sapiens) (UniProt Q9Y6R4); details: Compound concentration 1000.0 nM
[20] = biological target: Serine/threonine-protein kinase MARK2 (Homo sapiens) (UniProt Q7KZI7); details: Compound concentration 1000.0 nM
Serine/threonine-protein kinase MARK2 (Homo sapiens), sequence (Q7KZI7 whole entry): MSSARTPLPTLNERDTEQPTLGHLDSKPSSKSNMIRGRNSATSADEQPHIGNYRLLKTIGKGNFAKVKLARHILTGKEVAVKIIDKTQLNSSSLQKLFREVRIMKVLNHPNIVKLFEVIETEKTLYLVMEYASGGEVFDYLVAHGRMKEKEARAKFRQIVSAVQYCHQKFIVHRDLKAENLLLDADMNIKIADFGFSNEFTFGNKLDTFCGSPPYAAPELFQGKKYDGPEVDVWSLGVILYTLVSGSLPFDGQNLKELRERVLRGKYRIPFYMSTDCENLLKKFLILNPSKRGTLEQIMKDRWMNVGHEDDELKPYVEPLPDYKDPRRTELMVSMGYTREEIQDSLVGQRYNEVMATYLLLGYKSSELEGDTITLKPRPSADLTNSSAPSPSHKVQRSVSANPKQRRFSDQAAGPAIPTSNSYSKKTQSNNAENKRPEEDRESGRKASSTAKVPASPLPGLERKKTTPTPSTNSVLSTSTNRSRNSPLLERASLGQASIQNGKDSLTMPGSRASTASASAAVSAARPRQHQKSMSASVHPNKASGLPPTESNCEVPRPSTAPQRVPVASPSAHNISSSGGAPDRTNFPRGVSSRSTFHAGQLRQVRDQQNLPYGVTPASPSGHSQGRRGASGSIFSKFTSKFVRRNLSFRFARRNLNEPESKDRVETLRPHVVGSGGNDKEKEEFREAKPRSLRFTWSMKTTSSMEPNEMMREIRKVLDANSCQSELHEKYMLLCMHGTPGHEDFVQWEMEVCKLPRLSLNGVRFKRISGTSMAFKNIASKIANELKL

[21] = biological target: Dual specificity mitogen-activated protein kinase kinase 4 (Homo sapiens) (UniProt P45985); details: Compound concentration 1000.0 nM
[22] = biological target: Mitogen-activated protein kinase kinase kinase 10 (Homo sapiens) (UniProt Q02779); details: Compound concentration 1000.0 nM
[23] = biological target: Serine/threonine-protein kinase MRCK alpha (Homo sapiens) (UniProt Q5VT25); details: Compound concentration 1000.0 nM
[24] = biological target: Myosin light chain kinase, smooth muscle (Homo sapiens) (UniProt Q15746); details: Compound concentration 1000.0 nM
[25] = biological target: Serine/threonine-protein kinase Nek10 (Homo sapiens) (UniProt Q6ZWH5); details: Compound concentration 1000.0 nM
[26] = biological target: Serine/threonine-protein kinase Nek11 (Homo sapiens) (UniProt Q8NG66); details: Compound concentration 1000.0 nM
[27] = biological target: Mitogen-activated protein kinase 11 (Homo sapiens) (UniProt Q15759); details: Compound concentration 1000.0 nM
[28] = biological target: Serine/threonine-protein kinase PAK 3 (Homo sapiens) (UniProt O75914); details: Compound concentration 1000.0 nM
[29] = biological target: Serine/threonine-protein kinase PAK 5 (Homo sapiens) (UniProt Q9P286); details: Compound concentration 1000.0 nM
[30] = biological target: Platelet-derived growth factor receptor alpha (Homo sapiens) (UniProt P16234); details: Compound concentration 1000.0 nM
[31] = tested on: Phosphatidylinositol 4,5-bisphosphate 3-kinase catalytic subunit alpha isoform (Homo sapiens), P42336 [M1043I]; details: Compound concentration 1000.0 nM
[32] = biological target: 1-phosphatidylinositol 3-phosphate 5-kinase (Homo sapiens) (UniProt Q9Y2I7); details: Compound concentration 1000.0 nM
[33] = biological target: Phosphatidylinositol 4-phosphate 5-kinase type-1 alpha (Homo sapiens) (UniProt Q99755); details: Compound concentration 1000.0 nM
[34] = biological target: Serine/threonine-protein kinase PLK1 (Homo sapiens) (UniProt P53350); details: Compound concentration 1000.0 nM
[35] = biological target: Serine/threonine-protein kinase PLK3 (Homo sapiens) (UniProt Q9H4B4); details: Compound concentration 1000.0 nM
[36] = biological target: Protein kinase C iota type (Homo sapiens) (UniProt P41743); details: Compound concentration 1000.0 nM
[37] = biological target: Rho-associated protein kinase 2 (Homo sapiens) (UniProt O75116); details: Compound concentration 1000.0 nM
[38] = biological target: Ribosomal protein S6 kinase alpha-3 (Homo sapiens) (UniProt P51812); details: Compound concentration 1000.0 nM
Ribosomal protein S6 kinase alpha-3 (Homo sapiens), sequence (P51812 whole entry): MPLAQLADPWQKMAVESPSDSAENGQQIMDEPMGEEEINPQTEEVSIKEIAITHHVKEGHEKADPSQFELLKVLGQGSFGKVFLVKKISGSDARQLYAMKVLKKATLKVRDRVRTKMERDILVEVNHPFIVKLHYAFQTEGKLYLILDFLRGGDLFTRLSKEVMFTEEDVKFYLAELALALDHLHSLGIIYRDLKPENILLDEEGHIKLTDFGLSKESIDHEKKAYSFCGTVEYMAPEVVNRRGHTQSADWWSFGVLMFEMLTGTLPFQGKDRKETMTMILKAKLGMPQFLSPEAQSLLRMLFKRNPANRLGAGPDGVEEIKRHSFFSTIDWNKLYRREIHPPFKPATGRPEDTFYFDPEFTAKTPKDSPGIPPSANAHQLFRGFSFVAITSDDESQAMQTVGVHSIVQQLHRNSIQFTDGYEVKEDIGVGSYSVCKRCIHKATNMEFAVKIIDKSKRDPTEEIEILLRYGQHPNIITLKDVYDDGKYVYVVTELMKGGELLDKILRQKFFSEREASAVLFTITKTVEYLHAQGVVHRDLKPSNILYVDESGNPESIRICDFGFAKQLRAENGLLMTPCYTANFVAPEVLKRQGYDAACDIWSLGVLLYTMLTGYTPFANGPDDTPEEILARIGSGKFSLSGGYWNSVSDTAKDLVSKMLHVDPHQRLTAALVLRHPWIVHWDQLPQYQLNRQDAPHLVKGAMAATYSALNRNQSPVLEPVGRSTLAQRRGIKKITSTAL

[39] = biological target: Serine/threonine-protein kinase SIK1 (Homo sapiens) (UniProt P57059); details: Compound concentration 1000.0 nM
[40] = biological target: Tyrosine-protein kinase Srms (Homo sapiens) (UniProt Q9H3Y6); details: Compound concentration 1000.0 nM
Tyrosine-protein kinase Srms (Homo sapiens), sequence (Q9H3Y6 whole entry): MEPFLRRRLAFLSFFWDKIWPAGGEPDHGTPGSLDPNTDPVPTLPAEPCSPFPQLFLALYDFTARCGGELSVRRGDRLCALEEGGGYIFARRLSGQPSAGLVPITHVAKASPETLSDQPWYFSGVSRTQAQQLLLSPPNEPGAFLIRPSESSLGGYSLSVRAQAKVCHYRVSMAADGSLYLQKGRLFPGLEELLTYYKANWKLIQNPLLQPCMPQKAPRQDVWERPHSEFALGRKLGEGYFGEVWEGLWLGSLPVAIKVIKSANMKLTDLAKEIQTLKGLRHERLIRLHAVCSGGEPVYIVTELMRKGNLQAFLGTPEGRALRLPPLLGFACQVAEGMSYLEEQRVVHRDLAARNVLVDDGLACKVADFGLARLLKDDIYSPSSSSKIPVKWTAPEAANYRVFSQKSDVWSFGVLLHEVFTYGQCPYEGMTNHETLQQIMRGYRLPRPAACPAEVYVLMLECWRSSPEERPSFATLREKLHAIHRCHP

[41] = biological target: TGF-beta receptor type-2 (Homo sapiens) (UniProt P37173); details: Compound concentration 1000.0 nM
TGF-beta receptor type-2 (Homo sapiens), sequence (P37173 whole entry): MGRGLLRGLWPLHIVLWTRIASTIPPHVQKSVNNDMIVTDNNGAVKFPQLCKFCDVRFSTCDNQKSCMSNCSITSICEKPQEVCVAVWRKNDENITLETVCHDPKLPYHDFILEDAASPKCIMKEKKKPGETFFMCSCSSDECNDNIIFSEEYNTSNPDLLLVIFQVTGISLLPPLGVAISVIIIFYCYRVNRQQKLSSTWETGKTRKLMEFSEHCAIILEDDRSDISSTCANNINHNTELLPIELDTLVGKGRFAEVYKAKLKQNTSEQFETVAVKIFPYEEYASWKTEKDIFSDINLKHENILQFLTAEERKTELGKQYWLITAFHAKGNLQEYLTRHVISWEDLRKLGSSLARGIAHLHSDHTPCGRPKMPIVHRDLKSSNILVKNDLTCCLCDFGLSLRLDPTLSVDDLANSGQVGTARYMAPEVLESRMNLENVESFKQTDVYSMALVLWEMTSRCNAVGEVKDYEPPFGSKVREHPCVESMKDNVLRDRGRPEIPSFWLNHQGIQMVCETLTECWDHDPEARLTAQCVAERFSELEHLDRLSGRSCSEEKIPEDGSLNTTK

[42] = biological target: Tyrosine-protein kinase TXK (Homo sapiens) (UniProt P42681); details: Compound concentration 1000.0 nM
[43] = biological target: GABA-A receptor; anion channel (Rattus norvegicus) (UniProt O09028+P15431+P18506+P18508+P19969+P20236+P23574+P23576+P28471+P28473+P30191+P62813+P63079+P63138+Q91ZM7+Q9ES14); details: Compound concentration 10.0 uM
Rattus norvegicus = organism: Rattus norvegicus; details: Compound concentration 10.0 uM

N#CC1(c2ccccn2)CCN(Cc2cc(C(=O)O)c(=O)n3ccccc23)CC1 [MSD-M1PAM]
inactive: residual activity [1] 57% | residual activity [2] 75% | residual activity [3] 100% | residual activity [4] 100% | residual activity [5] 98% | residual activity [6] 80% | residual activity [7] 100% | residual activity [8] 100% | residual activity [9] 93% | residual activity [10] 100% | residual activity [11] 86% | residual activity [12] 100% | residual activity [13] 100% | residual activity [14] 100% | residual activity [15] 97% | residual activity [16] 77% | residual activity [17] 100% | residual activity [18] 100% | residual activity [19] 100% | residual activity [20] 100% | residual activity [21] 85% | residual activity [22] 97% | residual activity [23] 100% | residual activity [24] 87% | residual activity [25] 93% | residual activity [26] 89% | residual activity [27] 100% | residual activity [28] 100% | residual activity [29] 96% | residual activity [30] 90% | residual activity [31] 91% | residual activity [32] 97% | residual activity [33] 100% | residual activity [34] 70% | residual activity [35] 85% | residual activity [36] 100% | residual activity [37] 85% | residual activity [38] 100% | residual activity [39] 92% | residual activity [40] 93% | residual activity [41] 93% | residual activity [42] 100% | inhibition [43] 20.2% | inhibition (Rattus norvegicus) 7.88%

N#CC1(c2ccccn2)CCN(Cc2cc(C(=O)N3CCCC3)c(=O)n3ccccc23)CC1
inactive: residual activity [1] 92% | residual activity [2] 80% | residual activity [3] 99% | residual activity [4] 82% | residual activity [5] 100% | residual activity [6] 85% | residual activity [7] 79% | residual activity [8] 100% | residual activity [9] 100% | residual activity [10] 92% | residual activity [11] 87% | residual activity [12] 98% | residual activity [13] 91% | residual activity [14] 98% | residual activity [15] 100% | residual activity [16] 87% | residual activity [17] 100% | residual activity [18] 100% | residual activity [19] 90% | residual activity [20] 100% | residual activity [21] 83% | residual activity [22] 100% | residual activity [23] 84% | residual activity [24] 100% | residual activity [25] 96% | residual activity [26] 63% | residual activity [27] 76% | residual activity [28] 100% | residual activity [29] 93% | residual activity [30] 97% | residual activity [31] 72% | residual activity [32] 76% | residual activity [33] 100% | residual activity [34] 100% | residual activity [35] 100% | residual activity [36] 87% | residual activity [37] 72% | residual activity [38] 100% | residual activity [39] 100% | residual activity [40] 100% | residual activity [41] 93% | residual activity [42] 91% | inhibition [43] 23.2% | inhibition (Rattus norvegicus) 46.5%
